Experimental data reported in publication PMC5218480 (PLoS ONE, 2017).

Test system: MV-4-11 cells
Assay: Gene expression microarray analysis (Affymetrix PrimeView) and GSEA
Assay type: cell-based, human
Set-up: RFU PODN (11730768_x_at) / Fold change /veh PODN (11730768_x_at) / RFU LINC00158 (11744669_a_at) / Fold change /veh LINC00158 (11744669_a_at) / RFU DUSP10 (11751237_a_at) / Fold change /veh DUSP10 (11751237_a_at) / RFU ID3 (11757404_x_at) / Fold change /veh ID3 (11757404_x_at) / RFU PLEKHG5 (11737974_s_at) / Fold change /veh PLEKHG5 (11737974_s_at) / RFU LRRC4B (11730491_at) / Fold change /veh LRRC4B (11730491_at) / RFU GIMAP4 (11747438_a_at) / Fold change /veh GIMAP4 (11747438_a_at) / RFU KRT8 (11758183_x_at) / Fold change /veh KRT8 (11758183_x_at) / RFU CNN1 (11734310_a_at) / Fold change /veh CNN1 (11734310_a_at) / RFU VPS37D (11726825_at) / Fold change /veh VPS37D (11726825_at) / RFU C10orf10 (11716522_x_at) / Fold change /veh C10orf10 (11716522_x_at) / RFU KIR2DL2 /// KIR2DL4 /// KIR2DL5A /// KIR2DL5B /// KIR2DS1 /// KIR2DS2 /// KIR2DS3 /// KIR2DS4 /// KIR3DL3 /// KIR3DL3 /// KIR3DS1 (11738374_at) / Fold change /veh KIR2DL2 /// KIR2DL4 /// KIR2DL5A /// KIR2DL5B /// KIR2DS1 /// KIR2DS2 /// KIR2DS3 /// KIR2DS4 /// KIR3DL3 /// KIR3DL3 /// KIR3DS1 (11738374_at) / RFU C1QL1 (11718748_at) / Fold change /veh C1QL1 (11718748_at) / RFU TMPRSS4 (11747572_a_at) / Fold change /veh TMPRSS4 (11747572_a_at) / RFU HAMP (11756126_x_at) / Fold change /veh HAMP (11756126_x_at) / RFU RNFT2 (11725882_a_at) / Fold change /veh RNFT2 (11725882_a_at) / RFU NR4A2 (11747474_a_at) / Fold change /veh NR4A2 (11747474_a_at) / RFU ABCC12 (11746883_a_at) / Fold change /veh ABCC12 (11746883_a_at) / RFU TMEM136 (11760407_x_at) / Fold change /veh TMEM136 (11760407_x_at) / RFU CLDN22 /// WWC2 (11732394_at) / Fold change /veh CLDN22 /// WWC2 (11732394_at) / RFU HLA-DPB1 (11760878_x_at) / Fold change /veh HLA-DPB1 (11760878_x_at) / RFU SPINT1 (11716480_a_at) / Fold change /veh SPINT1 (11716480_a_at) / RFU GAP43 (11754022_s_at) / Fold change /veh GAP43 (11754022_s_at) / RFU A4GNT (11735810_at) / Fold change /veh A4GNT (11735810_at) / RFU PRB3 (11715151_x_at) / Fold change /veh PRB3 (11715151_x_at) / RFU TUBB4B (11761932_at) / Fold change /veh TUBB4B (11761932_at) / RFU CAPN14 (11732068_a_at) / Fold change /veh CAPN14 (11732068_a_at) / RFU TMCC2 (11721928_a_at) / Fold change /veh TMCC2 (11721928_a_at) / RFU IRGQ (11745062_a_at) / Fold change /veh IRGQ (11745062_a_at) / RFU FAM174B (11720279_a_at) / Fold change /veh FAM174B (11720279_a_at) / RFU TMPRSS4 (11748680_a_at) / Fold change /veh TMPRSS4 (11748680_a_at) / RFU FAM212B (11763350_a_at) / Fold change /veh FAM212B (11763350_a_at) / RFU PLEKHG5 (11743358_a_at) / Fold change /veh PLEKHG5 (11743358_a_at) / RFU ZSCAN30 (11745921_a_at) / Fold change /veh ZSCAN30 (11745921_a_at) / RFU CMKLR1 (11741424_a_at) / Fold change /veh CMKLR1 (11741424_a_at) / RFU LOC101060620 /// MAPK8IP1 (11723275_at) / Fold change /veh LOC101060620 /// MAPK8IP1 (11723275_at) / RFU SPTSSB (11747773_x_at) / Fold change /veh SPTSSB (11747773_x_at) / RFU PRSS12 (11739890_at) / Fold change /veh PRSS12 (11739890_at) / RFU BIN1 (11741810_x_at) / Fold change /veh BIN1 (11741810_x_at) / RFU WNT11 (11732464_a_at) / Fold change /veh WNT11 (11732464_a_at) / RFU C10orf10 (11716521_a_at) / Fold change /veh C10orf10 (11716521_a_at) / RFU C5orf56 (11738089_at) / Fold change /veh C5orf56 (11738089_at) / RFU CYB561 (11721691_x_at) / Fold change /veh CYB561 (11721691_x_at) / RFU ANKRD19P (11752326_a_at) / Fold change /veh ANKRD19P (11752326_a_at) / RFU OR2T12 /// OR2T33 /// OR2T8 (11738714_s_at) / Fold change /veh OR2T12 /// OR2T33 /// OR2T8 (11738714_s_at) / RFU VCAN (11748164_a_at) / Fold change /veh VCAN (11748164_a_at) / RFU JSRP1 (11732532_at) / Fold change /veh JSRP1 (11732532_at) / RFU KRTAP10-11 (11738290_x_at) / Fold change /veh KRTAP10-11 (11738290_x_at) / RFU MYO3A (11730013_a_at) / Fold change /veh MYO3A (11730013_a_at) / RFU EBF3 (11725865_a_at) / Fold change /veh EBF3 (11725865_a_at) / RFU CAMK2N1 (11719241_x_at) / Fold change /veh CAMK2N1 (11719241_x_at) / RFU C5orf56 (11738088_a_at) / Fold change /veh C5orf56 (11738088_a_at) / RFU OLFML3 (11715873_a_at) / Fold change /veh OLFML3 (11715873_a_at) / RFU LOC100653217 /// NTM (11731650_a_at) / Fold change /veh LOC100653217 /// NTM (11731650_a_at) / RFU MAPK11 (11762145_a_at) / Fold change /veh MAPK11 (11762145_a_at) / RFU FIZ1 (11724087_x_at) / Fold change /veh FIZ1 (11724087_x_at) / RFU OASL (11726364_x_at) / Fold change /veh OASL (11726364_x_at) / RFU SOX15 (11748057_x_at) / Fold change /veh SOX15 (11748057_x_at) / RFU CD79A (11719716_a_at) / Fold change /veh CD79A (11719716_a_at) / RFU HIST1H1D (11736915_at) / Fold change /veh HIST1H1D (11736915_at) / RFU CASKIN2 (11723855_a_at) / Fold change /veh CASKIN2 (11723855_a_at) / RFU LOC730098 (11760151_x_at) / Fold change /veh LOC730098 (11760151_x_at) / RFU OR4N2 (11742367_at) / Fold change /veh OR4N2 (11742367_at) / RFU PRRT2 (11749266_a_at) / Fold change /veh PRRT2 (11749266_a_at) / RFU SNX32 (11753110_a_at) / Fold change /veh SNX32 (11753110_a_at) / RFU CDHR5 (11726645_a_at) / Fold change /veh CDHR5 (11726645_a_at) / RFU RCAN1 (11760418_a_at) / Fold change /veh RCAN1 (11760418_a_at) / RFU FAM167A (11723789_a_at) / Fold change /veh FAM167A (11723789_a_at) / RFU FAM26E (11764081_at) / Fold change /veh FAM26E (11764081_at) / RFU ISYNA1 (11749810_s_at) / Fold change /veh ISYNA1 (11749810_s_at) / RFU ACY1 (11761880_at) / Fold change /veh ACY1 (11761880_at) / RFU 11764098_at / Fold change /veh 11764098_at / RFU SAMD14 (11745864_x_at) / Fold change /veh SAMD14 (11745864_x_at) / RFU NPB (11741838_a_at) / Fold change /veh NPB (11741838_a_at) / RFU TMPRSS6 (11731388_a_at) / Fold change /veh TMPRSS6 (11731388_a_at) / RFU KRTAP10-2 (11738614_at) / Fold change /veh KRTAP10-2 (11738614_at) / RFU ARHGAP8 /// PRR5-ARHGAP8 (11727945_x_at) / Fold change /veh ARHGAP8 /// PRR5-ARHGAP8 (11727945_x_at) / RFU KRTAP5-7 /// NADSYN1 (11734609_at) / Fold change /veh KRTAP5-7 /// NADSYN1 (11734609_at) / RFU RASL12 (11751679_a_at) / Fold change /veh RASL12 (11751679_a_at) / RFU CDKN2B (11736163_a_at) / Fold change /veh CDKN2B (11736163_a_at) / RFU PRF1 (11729649_at) / Fold change /veh PRF1 (11729649_at) / RFU, ZNF638 /// ZNF638-IT1 / Fold change vs veh, ZNF638 /// ZNF638-IT1 / RFU, PANK3 / Fold change vs veh, PANK3 / RFU, SH3YL1 / Fold change vs veh, SH3YL1 / RFU, ZEB2 / Fold change vs veh, ZEB2 / RFU, NRIP1 / Fold change vs veh, NRIP1 / RFU, PTTG1IP / Fold change vs veh, PTTG1IP / RFU, CAPN2 / Fold change vs veh, CAPN2 / RFU, MED14 / Fold change vs veh, MED14 / RFU, SNORA58 / Fold change vs veh, SNORA58 / RFU, C1orf63 / Fold change vs veh, C1orf63 / RFU, LRRFIP1 / Fold change vs veh, LRRFIP1 / RFU, NDUFAF7 / Fold change vs veh, NDUFAF7 / RFU, SLC12A2 / Fold change vs veh, SLC12A2 / RFU, IBTK / Fold change vs veh, IBTK / RFU, ESF1 / Fold change vs veh, ESF1 / Fold change vs veh, TMEM50B / RFU, TAOK1 / Fold change vs veh, TAOK1 / RFU, ACBD3 / Fold change vs veh, ACBD3 / RFU, TMA16 / Fold change vs veh, TMA16 / RFU, RWDD3 / Fold change vs veh, RWDD3 / RFU, BCAT1 / Fold change vs veh, BCAT1 / RFU, EDEM3 / Fold change vs veh, EDEM3 / RFU, TMEM33 / Fold change vs veh, TMEM33 / RFU, WDR75 / Fold change vs veh, WDR75 / RFU, AHCTF1 / Fold change vs veh, AHCTF1 / RFU, TFRC / Fold change vs veh, TFRC / RFU, ZDHHC17 / Fold change vs veh, ZDHHC17 / RFU, NOM1 / Fold change vs veh, NOM1 / RFU, ARL8B / Fold change vs veh, ARL8B / RFU, ZBTB11 / Fold change vs veh, ZBTB11 / RFU, TAMM41 / Fold change vs veh, TAMM41 / RFU, KIAA1704 /// LOC100996395 / Fold change vs veh, KIAA1704 /// LOC100996395 / RFU, ING1 / Fold change vs veh, ING1 / RFU, TRMT61B / Fold change vs veh, TRMT61B / RFU, FUBP3 / Fold change vs veh, FUBP3 / RFU, TP53 / Fold change vs veh, TP53 / RFU, TNKS2 / Fold change vs veh, TNKS2 / RFU, ZFP14 / Fold change vs veh, ZFP14 / RFU, ACTR2 / Fold change vs veh, ACTR2 / RFU, PPP3R1 / Fold change vs veh, PPP3R1 / RFU, PIK3R1 / Fold change vs veh, PIK3R1 / RFU, HNRNPA1 / Fold change vs veh, HNRNPA1 / RFU, RNF170 / Fold change vs veh, RNF170 / RFU, ZNF28 / Fold change vs veh, ZNF28 / RFU, RNGTT / Fold change vs veh, RNGTT / RFU, OGT / Fold change vs veh, OGT / RFU, BRD1 / Fold change vs veh, BRD1 / RFU, MARS / Fold change vs veh, MARS / RFU, ZNF655 / Fold change vs veh, ZNF655 / RFU, FAHD1 / Fold change vs veh, FAHD1 / RFU, BDP1 / Fold change vs veh, BDP1 / RFU, LRRCC1 / Fold change vs veh, LRRCC1 / RFU, ARID1A / Fold change vs veh, ARID1A / RFU, ZNF146 / Fold change vs veh, ZNF146 / RFU, ZNF330 / Fold change vs veh, ZNF330 / RFU, GPN3 / Fold change vs veh, GPN3 / RFU, C9orf123 / Fold change vs veh, C9orf123 / RFU, N4BP2L2 / Fold change vs veh, N4BP2L2 / RFU, ARFIP1 / Fold change vs veh, ARFIP1 / RFU, FAM179B / Fold change vs veh, FAM179B / RFU, BCL10 / Fold change vs veh, BCL10 / RFU, UHRF1BP1L / Fold change vs veh, UHRF1BP1L / RFU, BET1 / Fold change vs veh, BET1 / RFU, CNOT2 / Fold change vs veh, CNOT2 / RFU, ZNF268 / Fold change vs veh, ZNF268 / Fold change vs veh, ZNF507 / RFU, DGCR2 / Fold change vs veh, DGCR2 / RFU, WDSUB1 / Fold change vs veh, WDSUB1 / Fold change vs veh, HSP90B1 /// MIR3652 / RFU, ADSS / Fold change vs veh, ADSS / RFU, GK / Fold change vs veh, GK / RFU, ZNF148 / Fold change vs veh, ZNF148 / RFU, TAF9 / Fold change vs veh, TAF9 / RFU, SLC1A5 / Fold change vs veh, SLC1A5 / RFU, SLMO2 / Fold change vs veh, SLMO2 / RFU, ABCC4 / Fold change vs veh, ABCC4 / RFU, LOC101060439 /// RAP1B / Fold change vs veh, LOC101060439 /// RAP1B / RFU, RFX7 / Fold change vs veh, RFX7 / RFU, GTPBP10 / Fold change vs veh, GTPBP10 / RFU, CNEP1R1 / Fold change vs veh, CNEP1R1 / RFU, BIVM-ERCC5 /// ERCC5 / Fold change vs veh, BIVM-ERCC5 /// ERCC5 / RFU, ILF3 / Fold change vs veh, ILF3 / RFU 11762660_at / Fold change /veh 11762660_at / RFU VCAN (11757783_s_at) / Fold change /veh VCAN (11757783_s_at) / RFU DDX43 (11728927_at) / Fold change /veh DDX43 (11728927_at) / RFU KRT8 (11758188_x_at) / Fold change /veh KRT8 (11758188_x_at) / RFU NKD1 (11759106_at) / Fold change /veh NKD1 (11759106_at) / RFU SRD5A1 (11742802_a_at) / Fold change /veh SRD5A1 (11742802_a_at) / RFU TPSAB1 /// TPSB2 (11721975_s_at) / Fold change /veh TPSAB1 /// TPSB2 (11721975_s_at) / RFU GSTM3 (11746129_a_at) / Fold change /veh GSTM3 (11746129_a_at) / RFU IL23R (11737362_x_at) / Fold change /veh IL23R (11737362_x_at) / RFU TMEM51 (11727254_a_at) / Fold change /veh TMEM51 (11727254_a_at) / RFU PIWIL2 (11732686_x_at) / Fold change /veh PIWIL2 (11732686_x_at) / RFU ORM1 (11744905_x_at) / Fold change /veh ORM1 (11744905_x_at) / RFU CCDC152 (11743942_at) / Fold change /veh CCDC152 (11743942_at) / RFU ECM1 (11717891_a_at) / Fold change /veh ECM1 (11717891_a_at) / RFU IL23R (11748794_a_at) / Fold change /veh IL23R (11748794_a_at) / RFU TNFAIP8L3 (11732012_x_at) / Fold change /veh TNFAIP8L3 (11732012_x_at) / RFU MBOAT4 (11741988_at) / Fold change /veh MBOAT4 (11741988_at) / RFU 11764193_at / Fold change /veh 11764193_at / RFU TMEM53 (11763286_at) / Fold change /veh TMEM53 (11763286_at) / RFU MAGEB2 (11727129_at) / Fold change /veh MAGEB2 (11727129_at) / RFU TMEM200A (11744735_a_at) / Fold change /veh TMEM200A (11744735_a_at) / RFU CCDC152 (11751479_a_at) / Fold change /veh CCDC152 (11751479_a_at) / RFU FAM211A (11726209_a_at) / Fold change /veh FAM211A (11726209_a_at) / RFU RGS16 (11746705_a_at) / Fold change /veh RGS16 (11746705_a_at) / RFU VCAN (11755009_s_at) / Fold change /veh VCAN (11755009_s_at) / RFU RHOB (11743442_s_at) / Fold change /veh RHOB (11743442_s_at) / RFU RGS16 (11720943_a_at) / Fold change /veh RGS16 (11720943_a_at) / RFU RGS16 (11720944_at) / Fold change /veh RGS16 (11720944_at) / RFU, VPS4B / Fold change vs veh, VPS4B / RFU, CREB1 / Fold change vs veh, CREB1 / RFU, DNAJC13 / Fold change vs veh, DNAJC13 / RFU, GNAQ / Fold change vs veh, GNAQ / RFU, CDK5R1 / Fold change vs veh, CDK5R1 / RFU, ZRANB3 / Fold change vs veh, ZRANB3 / RFU, CUL4A / Fold change vs veh, CUL4A / RFU, CCNY / Fold change vs veh, CCNY / RFU, UFL1 / Fold change vs veh, UFL1 / RFU, COG3 / Fold change vs veh, COG3 / RFU, DIAPH2 / Fold change vs veh, DIAPH2 / RFU, SKA2 / Fold change vs veh, SKA2 / RFU, AFF3 / Fold change vs veh, AFF3 / RFU, LMF1 / Fold change vs veh, LMF1 / RFU, IPO11 / Fold change vs veh, IPO11 / RFU, DFFB / Fold change vs veh, DFFB / RFU, FOXP1 / Fold change vs veh, FOXP1 / RFU, CARD8 / Fold change vs veh, CARD8 / RFU, STRN3 / Fold change vs veh, STRN3 / RFU, ADK / Fold change vs veh, ADK / RFU, RASSF2 / Fold change vs veh, RASSF2 / RFU, WIPF1 / Fold change vs veh, WIPF1 / RFU, LARP1B / Fold change vs veh, LARP1B / RFU, RASA1 / Fold change vs veh, RASA1 / RFU, RB1 / Fold change vs veh, RB1 / RFU, PPFIA1 / Fold change vs veh, PPFIA1 / RFU, MAT2A / Fold change vs veh, MAT2A / RFU, CCT5 / Fold change vs veh, CCT5 / RFU, WDR92 / Fold change vs veh, WDR92 / RFU, CUX1 / Fold change vs veh, CUX1 / RFU, TTC7A / Fold change vs veh, TTC7A / RFU, TMEM135 / Fold change vs veh, TMEM135 / RFU, DEPTOR / Fold change vs veh, DEPTOR / RFU, CPM / Fold change vs veh, CPM / RFU, DNAJB6 / Fold change vs veh, DNAJB6 / RFU, CACNA2D3 / Fold change vs veh, CACNA2D3 / RFU, DTX4 / Fold change vs veh, DTX4 / RFU, TFCP2 / Fold change vs veh, TFCP2 / RFU, GMCL1 /// GMCL1P1 / Fold change vs veh, GMCL1 /// GMCL1P1 / RFU, AEBP2 / Fold change vs veh, AEBP2 / RFU, SNHG1 /// SNORD22 /// SNORD25 /// SNORD26 /// SNORD27 /// SNORD28 /// SNORD29 /// SNORD31 / Fold change vs veh, SNHG1 /// SNORD22 /// SNORD25 /// SNORD26 /// SNORD27 /// SNORD28 /// SNORD29 /// SNORD31 / Fold change (Aza/veh), C12orf56 (ProbeSet 11735607_a_at) / Fold change (ACY-1035/veh), C12orf56 (ProbeSet 11735607_a_at) / Fold change (Aza/veh), FGFR1OP (ProbeSet 11751329_s_at) / Fold change (ACY-1035/veh), FGFR1OP (ProbeSet 11751329_s_at) / Fold change (Aza/veh), VPS36 (ProbeSet 11739960_a_at) / Fold change (ACY-1035/veh), VPS36 (ProbeSet 11739960_a_at) / RFU SYPL1 (11715823_x_at) / Fold change /veh SYPL1 (11715823_x_at) / RFU IGFBP7 (11715501_s_at) / Fold change /veh IGFBP7 (11715501_s_at) / RFU REEP3 (11722064_at) / Fold change /veh REEP3 (11722064_at) / RFU IGLL1 (11728026_x_at) / Fold change /veh IGLL1 (11728026_x_at): dose or concentration left out as unconfirmed
Conditions: ProbeSet 11732281_s_at; LIST D

For `Nc1ncn([C@@H]2O[C@H](CO)[C@@H](O)[C@H]2O)c(=O)n1` [azacitidine], the “Fold change vs veh, FOXP1” value was 0.63.
